Laboratory results reported in PubChem BioAssay AID2060327 (Molecular Pharmacology Branch, DTP, NCI, 2025).
Several values for one entry are separate records, joined by “and”; a condition that tells them apart may be missing. Identical values can stand only once.

Tested on: PC-3 multi-cell spheroids, viability
Assay: Anticancer human tumor PC-3 cell line growth inhibition [IpAb];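 also: spheroids exposed to compounds for 7 days before readout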;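 as to viability, T/C: 100% = DMSO vehicle control wells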
Details: for viability, T/C: stronger effect = lower value
Procedure, shortened: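 Spheroids of 60% malignant cells, 25% HUVEC and 15% MSC were exposed to targeted agents combined with ipatasertib or abemaciclib. Doses started at or near clinical Cmax (10 microM when unknown) and fell in half-log steps.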

[1] = curve of first compound, second compound 0.1 µM
[2] = curve of first compound, second compound 0.316 µM
[3] = curve of first compound, second compound 1 µM
[4] = second compound 0.1 µM, first compound 0.0316 µM
[5] = second compound 0.1 µM, first compound 0.1 µM
[6] = second compound 0.1 µM, first compound 0.316 µM
[7] = second compound 0.1 µM, first compound 1 µM
[8] = second compound 0.1 µM, first compound 3.16 µM
[9] = second compound 0.1 µM, first compound 10 µM
[10] = second compound 0.316 µM, first compound 0.0316 µM
[11] = second compound 0.316 µM, first compound 0.1 µM
[12] = second compound 0.316 µM, first compound 0.316 µM
[13] = second compound 0.316 µM, first compound 1 µM
[14] = second compound 0.316 µM, first compound 3.16 µM
[15] = second compound 0.316 µM, first compound 10 µM
[16] = second compound 1 µM, first compound 0.0316 µM
[17] = second compound 1 µM, first compound 0.1 µM
[18] = second compound 1 µM, first compound 0.316 µM
[19] = second compound 1 µM, first compound 1 µM
[20] = second compound 1 µM, first compound 3.16 µM
[21] = second compound 1 µM, first compound 10 µM

In the case of Cn1ncc(Cl)c1-c1cc(C(=O)NC(CN)Cc2cccc(F)c2)sc1Cl (stereo unspecified), the viability, T/C (compound 0.0316 µM) is reported as 89.7% and 88.1%, the viability, T/C (compound 0.1 µM) is reported as 62.9% and 60.5% and the viability, T/C (compound 0.316 µM) is reported as 43.6% and 36.2%. The viability, T/C (compound 1 µM) was 23% and 19.2%, the viability, T/C (compound 3.16 µM) was 17.9% and 16.2% and the viability, T/C (compound 10 µM) was 0.14% and 0.16%. For the same compound, the IC50 (curve of compound) was 212 nM and 165 nM.
With CC1(C)CCC(CN2CCN(c3ccc(C(=O)NS(=O)(=O)c4ccc(NCC5CCOCC5)c([N+](=O)[O-])c4)c(Oc4cnc5[nH]ccc5c4)c3)CC2)=C(c2ccc(Cl)cc2)C1 + CC(C)NCC(C(=O)N1CCN(c2ncnc3c2C(C)CC3O)CC1)c1ccc(Cl)cc1 the IC50 [1] was 4270 nM, the IC50 [2] was under 31.6 nM and the IC50 [3] was under 31.6 nM. For the same compound, the IC50 (curve of first compound, second compound 3.16 µM) was under 31.6 nM, the IC50 (curve of first compound, second compound 10 µM) was under 31.6 nM and the viability, T/C [4] was 69.2%. It also gave a viability, T/C [5] of 63.2%, a viability, T/C [6] of 67.6% and a viability, T/C [7] of 63.2%. For the same compound, the viability, T/C [8] was 69%, the viability, T/C [9] was 3.74% and the viability, T/C [10] was 43%. The viability, T/C [11] was 46.8%, the viability, T/C [12] was 42.7% and the viability, T/C [13] was 45.3%. It also gave a viability, T/C [14] of 35.7%, a viability, T/C [15] of 3.22% and a viability, T/C [16] of 22%. The viability, T/C [17] was 20.5%, the viability, T/C [18] was 22.4% and the viability, T/C [19] was 19%. The viability, T/C [20] was 15.8%, the viability, T/C [21] was 3.59% and the viability, T/C (second compound 3.16 µM, first compound 0.0316 µM) was 14.5%. It also gave a viability, T/C (second compound 3.16 µM, first compound 0.1 µM) of 15.3%, a viability, T/C (second compound 3.16 µM, first compound 0.316 µM) of 12.4% and a viability, T/C (second compound 3.16 µM, first compound 1 µM) of 13.4%. The viability, T/C (second compound 3.16 µM, first compound 3.16 µM) was 12.7%, the viability, T/C (second compound 3.16 µM, first compound 10 µM) was 3.12% and the viability, T/C (second compound 10 µM, first compound 0.0316 µM) was 13.7%. It also gave a viability, T/C (second compound 10 µM, first compound 0.1 µM) of 12.7%, a viability, T/C (second compound 10 µM, first compound 0.316 µM) of 14.1% and a viability, T/C (second compound 10 µM, first compound 1 µM) of 11.5%. It also gave a viability, T/C (second compound 10 µM, first compound 3.16 µM) of 10.7% and a viability, T/C (second compound 10 µM, first compound 10 µM) of 0.81%.
Cn1nccc1Nc1nccc(-c2ccn(C(CO)c3ccc(Cl)c(F)c3)c(=O)c2)n1 (stereo unspecified) was tested, and the viability, T/C (compound 0.0316 µM) was 98.1% and 104%, the viability, T/C (compound 0.1 µM) was 99.6% and 97.7% and the viability, T/C (compound 0.316 µM) was 90.7% and 104%. The viability, T/C (compound 1 µM) was 119% and 109%, the viability, T/C (compound 3.16 µM) was 125% and 119% and the viability, T/C (compound 10 µM) was 41.7% and 92.9%. For the same compound, the IC50 (curve of compound) was 8630 nM and > 10000 nM.
With Cn1ncc(Cl)c1-c1cc(C(=O)NC(CN)Cc2cccc(F)c2)sc1Cl (stereo unspecified) + CCN1CCN(Cc2ccc(Nc3ncc(F)c(-c4cc(F)c5nc(C)n(C(C)C)c5c4)n3)nc2)CC1 the IC50 (curve of first compound, second compound 0.01 µM) was 127 nM, the IC50 (curve of first compound, second compound 0.0316 µM) was 101 nM and the IC50 [1] was 62.9 nM. For the same compound, the IC50 [2] was 52.6 nM, the IC50 [3] was under 31.6 nM and the viability, T/C (second compound 0.01 µM, first compound 0.0316 µM) was 70.5%. It also gave a viability, T/C (second compound 0.01 µM, first compound 0.1 µM) of 55.3%, a viability, T/C (second compound 0.01 µM, first compound 0.316 µM) of 35.8% and a viability, T/C (second compound 0.01 µM, first compound 1 µM) of 17.5%. It also gave a viability, T/C (second compound 0.01 µM, first compound 3.16 µM) of 15.5%, a viability, T/C (second compound 0.01 µM, first compound 10 µM) of 0.14% and a viability, T/C (second compound 0.0316 µM, first compound 0.0316 µM) of 57.2%. The viability, T/C (second compound 0.0316 µM, first compound 0.1 µM) was 53%, the viability, T/C (second compound 0.0316 µM, first compound 0.316 µM) was 26.9% and the viability, T/C (second compound 0.0316 µM, first compound 1 µM) was 13.8%. For the same compound, the viability, T/C (second compound 0.0316 µM, first compound 3.16 µM) was 13.8%, the viability, T/C (second compound 0.0316 µM, first compound 10 µM) was 0.1% and the viability, T/C [4] was 53.2%. For the same compound, the viability, T/C [5] was 48.3%, the viability, T/C [6] was 17.5% and the viability, T/C [7] was 13.3%. The viability, T/C [8] was 9.97%, the viability, T/C [9] was 0.1% and the viability, T/C [10] was 56.5%. It also gave a viability, T/C [11] of 44%, a viability, T/C [12] of 19.4% and a viability, T/C [13] of 13.9%. The viability, T/C [14] was 11.6%, the viability, T/C [15] was 0.16% and the viability, T/C [16] was 46.3%. It also gave a viability, T/C [17] of 38.9%, a viability, T/C [18] of 28% and a viability, T/C [19] of 17.2%. It also gave a viability, T/C [20] of 12.1% and a viability, T/C [21] of 0.16%.
CCCS(=O)(=O)Nc1ccc(F)c(C(=O)c2c[nH]c3ncc(-c4ccc(Cl)cc4)cc23)c1F was tested, and the viability, T/C (compound 0.0316 µM) was 118% and 111%, the viability, T/C (compound 0.1 µM) was 106% and 99.5% and the viability, T/C (compound 0.316 µM) was 114% and 111%. For the same compound, the viability, T/C (compound 1 µM) was 111% and 101%, the viability, T/C (compound 3.16 µM) was 118% and 112% and the viability, T/C (compound 10 µM) was 72.7% and 67.1%. The IC50 (curve of compound) was over 10000 nM.
